pIC50: −log10 of the molar value.
Key:
[1] = target: purified human, His-tagged PRC2 complex (Homo sapiens, UniProt O75530+Q15910); assay: Hot Spot HMT assay: inhibition of PRC2 enzymatic activity (transfer of tritiated methyl from SAM to core histone, filter binding); format: biochemical; details: Inhibition of PRC2-mediated enzymatic activity; 10 nM PRC2 complex, 0.05 mg/ml core histone H3, 1 uM 3H-SAM, 1 hr at 30°C
In short: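 Serial compound dilutions starting at 1.0 µM were pre-incubated 20 min at 30°C with 10 nM complex (His-EZH2, Flag-EED, His-SUZ12, His-AEBP2, His-RbAp48) and 0.05 mg/ml core H3. Reaction ran 1 hr at 30°C after adding 1 uM [3H]-SAM; scintillation counting followed filtration.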

[2] = system: Karpas 422 cells; assay: Karpas 422 cell viability, CTG (Cell Titre Glo) assay; format: cell-based, human; details: Homo sapiens; Inhibition of proliferation of Karpas 422 cells (EZH2 Y641N); viability measured Day 4, Day 7 or Day 11, time point of the tabulated values not stated
Procedure: Karpas 422 cell line is a human B cell non-Hodgkin's lymphoma cell line established from a patient having DLBCL. This EZH2 heterozygotic cell line expresses a mutant form of EZH2 enzyme (Y641N) that increases histone H3 methylation and this mutation has been implicated in the tumorgenesis of lymphomas, such as DLBCL.
Karpas 422 cells (PHE cat no., 06101702) were cultured in RPMI medium supplemented with 20% fetal bovine serum and 1% penicillin/1% streptomycin and plated at a density of 1000 cells/90 µl/well in 96 well white assay plates. A dose response curve for compounds of the present invention was determined by adding a 10µl aliquot of stock solutions of varying concentrations of compounds to the same medium in each well, over a concentration range of 10µM using 3-fold dilutions to a final concentration of 1.5nM. The plates were incubated at 37° C for predetermined time periods, Day 4, Day 7, or Day 11, and the viability of the cells was measured using a CTG assay kit (Cell Titre Glo; Promega cat.no G7573) on Day 4 and Day 7 in accordance with the manufacturer's instructions.
For the viability assay for the Day 11 plates, the plates were subjected to centrifugation at 1100 rpm for five minutes on Day 7 and the supernatant was removed by aspiration. The cells were resuspended in 90 µl aliquot of the appropriate growth medium lacking the compound followed by addition of 10 µl of a 10X stock of the same compound at the same concentration. The viability of the Day 11 cells was measured using the CTG assay kit described above in accordance with the manufacturer's instructions. The IC50 values for each compound at each predetermined time point were calculated using Graph pad PRISM software and the results are shown in Table 15. A = ≤250 nM; B = […] - ≤500 nM; and C = >500 nM.

purified human, His-tagged PRC2 complex, sequence (Q15910 whole entry): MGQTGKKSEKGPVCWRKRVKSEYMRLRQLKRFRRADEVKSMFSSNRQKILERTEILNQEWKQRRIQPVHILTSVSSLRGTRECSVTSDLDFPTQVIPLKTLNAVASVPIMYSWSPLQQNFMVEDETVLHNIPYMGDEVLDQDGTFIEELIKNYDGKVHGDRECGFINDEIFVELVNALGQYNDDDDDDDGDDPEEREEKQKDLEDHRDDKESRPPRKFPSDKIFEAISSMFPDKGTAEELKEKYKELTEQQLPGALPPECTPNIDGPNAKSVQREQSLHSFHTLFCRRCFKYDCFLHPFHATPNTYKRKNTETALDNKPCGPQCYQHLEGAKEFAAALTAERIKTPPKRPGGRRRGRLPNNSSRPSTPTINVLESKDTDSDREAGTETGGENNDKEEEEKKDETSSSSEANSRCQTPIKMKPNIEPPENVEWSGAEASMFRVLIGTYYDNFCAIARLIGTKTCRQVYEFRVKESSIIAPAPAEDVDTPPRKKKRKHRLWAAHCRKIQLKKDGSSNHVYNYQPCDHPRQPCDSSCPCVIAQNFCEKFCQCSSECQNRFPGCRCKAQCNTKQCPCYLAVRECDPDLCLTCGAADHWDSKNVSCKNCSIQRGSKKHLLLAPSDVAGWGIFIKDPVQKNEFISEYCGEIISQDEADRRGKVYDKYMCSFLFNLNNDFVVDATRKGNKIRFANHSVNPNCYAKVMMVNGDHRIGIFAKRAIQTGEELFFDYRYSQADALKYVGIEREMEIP
purified human, His-tagged PRC2 complex, sequence (O75530 whole entry): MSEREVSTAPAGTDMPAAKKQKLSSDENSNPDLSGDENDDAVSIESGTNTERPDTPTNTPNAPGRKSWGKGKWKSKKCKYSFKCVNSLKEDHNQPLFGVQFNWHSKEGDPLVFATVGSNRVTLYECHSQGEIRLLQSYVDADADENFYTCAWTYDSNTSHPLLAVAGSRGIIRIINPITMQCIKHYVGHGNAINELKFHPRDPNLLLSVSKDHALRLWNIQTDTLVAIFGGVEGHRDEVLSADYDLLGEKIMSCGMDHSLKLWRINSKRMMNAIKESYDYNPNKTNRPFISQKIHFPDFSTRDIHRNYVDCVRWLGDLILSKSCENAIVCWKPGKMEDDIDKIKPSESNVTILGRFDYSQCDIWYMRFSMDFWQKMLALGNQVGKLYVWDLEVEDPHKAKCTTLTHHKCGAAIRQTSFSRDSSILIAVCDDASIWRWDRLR
purified human, His-tagged PRC2 complex, sequence (Q15022 whole entry partner): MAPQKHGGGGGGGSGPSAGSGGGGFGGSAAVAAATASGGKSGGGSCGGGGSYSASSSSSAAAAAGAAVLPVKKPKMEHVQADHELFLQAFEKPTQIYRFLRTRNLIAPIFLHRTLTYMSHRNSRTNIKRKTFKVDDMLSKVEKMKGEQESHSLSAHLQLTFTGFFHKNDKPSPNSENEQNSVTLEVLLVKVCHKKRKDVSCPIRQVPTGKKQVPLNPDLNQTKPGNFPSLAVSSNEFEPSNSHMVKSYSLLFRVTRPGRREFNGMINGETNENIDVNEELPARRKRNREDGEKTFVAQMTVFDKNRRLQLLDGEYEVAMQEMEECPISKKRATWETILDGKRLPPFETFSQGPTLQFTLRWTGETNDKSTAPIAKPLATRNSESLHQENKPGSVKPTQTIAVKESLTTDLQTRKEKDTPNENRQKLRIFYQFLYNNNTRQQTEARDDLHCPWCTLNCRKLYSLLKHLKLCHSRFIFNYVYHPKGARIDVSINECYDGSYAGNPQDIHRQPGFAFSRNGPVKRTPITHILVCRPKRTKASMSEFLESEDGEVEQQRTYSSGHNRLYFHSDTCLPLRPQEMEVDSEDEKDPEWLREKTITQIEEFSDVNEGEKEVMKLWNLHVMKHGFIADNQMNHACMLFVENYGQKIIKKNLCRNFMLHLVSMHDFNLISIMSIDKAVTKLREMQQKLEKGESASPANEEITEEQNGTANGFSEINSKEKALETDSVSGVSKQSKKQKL
purified human, His-tagged PRC2 complex, sequence (Q6ZN18 whole entry partner): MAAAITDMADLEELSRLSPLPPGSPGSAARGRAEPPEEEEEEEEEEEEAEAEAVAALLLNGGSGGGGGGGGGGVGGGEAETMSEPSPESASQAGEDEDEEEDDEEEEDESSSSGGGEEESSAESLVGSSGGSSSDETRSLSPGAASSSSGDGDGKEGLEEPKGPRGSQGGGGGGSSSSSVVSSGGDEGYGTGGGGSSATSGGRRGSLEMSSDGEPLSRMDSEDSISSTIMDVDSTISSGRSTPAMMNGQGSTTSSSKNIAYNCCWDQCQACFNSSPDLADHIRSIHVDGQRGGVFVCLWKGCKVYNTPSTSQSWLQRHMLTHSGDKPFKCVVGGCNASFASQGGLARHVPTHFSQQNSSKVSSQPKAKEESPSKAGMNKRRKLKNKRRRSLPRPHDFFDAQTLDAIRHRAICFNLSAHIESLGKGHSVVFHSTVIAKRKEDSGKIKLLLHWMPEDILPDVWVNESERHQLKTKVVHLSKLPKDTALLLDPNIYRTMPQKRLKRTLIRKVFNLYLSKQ
purified human, His-tagged PRC2 complex, sequence (Q09028 whole entry partner): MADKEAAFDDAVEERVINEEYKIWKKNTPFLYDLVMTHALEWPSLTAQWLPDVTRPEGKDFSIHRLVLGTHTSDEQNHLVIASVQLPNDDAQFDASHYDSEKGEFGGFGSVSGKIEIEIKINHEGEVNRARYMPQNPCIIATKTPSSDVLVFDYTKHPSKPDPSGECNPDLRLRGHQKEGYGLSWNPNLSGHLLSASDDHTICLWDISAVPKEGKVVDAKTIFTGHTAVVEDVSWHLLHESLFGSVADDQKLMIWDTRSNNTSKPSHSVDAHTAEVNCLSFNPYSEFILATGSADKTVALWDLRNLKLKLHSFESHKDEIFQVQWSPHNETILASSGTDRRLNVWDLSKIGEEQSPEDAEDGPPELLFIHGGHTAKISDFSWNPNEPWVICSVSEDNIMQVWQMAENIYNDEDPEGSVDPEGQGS

| pIC50 [1] | pIC50 [2] | Structure (SMILES) |
| --- | --- | --- |
| > 7.00 | 6.30 to 6.60 | Cc1c(-c2cnc(NCc3c(F)ccc4c3CCO4)n3cc(C(N)=O)nc23)cnn1C(C)C [Example 16, 5-(((5-fluoro-2,3-dihydrobenzofuran-4-yl)methyl)amino)-8-(1-isopropyl-5-methyl-1H-pyrazol-4-yl)imidazo[1,2-c]pyrimidine-2-carboxamide] |
| > 7.00 | ≥ 6.60 | CN(C)Cc1ncc(-c2cnc(NCc3c(F)ccc4c3CCO4)n3cc(C#N)nc23)cc1F [Example 40, 8-(6-((dimethylamino)methyl)-5-fluoropyridin-3-yl)-5-(((5-fluoro-2,3-dihydrobenzofuran-4-yl)methyl)amino)imidazo[1,2-c]pyrimidine-2-carbonitrile] |
| > 7.00 | ≥ 6.60 | N#Cc1cn2c(NCc3c(F)ccc4c3CCO4)ncc(-c3ccc(C4CC4)nc3)c2n1 [Example 116, 8-(6-cyclopropylpyridin-3-yl)-5-(((5-fluoro-2,3-dihydrobenzofuran-4-yl)methyl)amino)imidazo[1,2-c]pyrimidine-2-carbonitrile] |
| > 7.00 | ≥ 6.60 | Cc1ncncc1-c1cnc(NCc2c(F)ccc3c2CCO3)n2cc(C#N)nc12 [Example 110, 5-(((5-fluoro-2,3-dihydrobenzofuran-4-yl)methyl)amino)-8-(4-methylpyrimidin-5-yl)imidazo[1,2-c]pyrimidine-2-carbonitrile] |
| > 7.00 | < 6.30 | N#Cc1ccc(-c2cnc(NCc3c(F)ccc4c3CCO4)n3cc(C#N)nc23)cn1 [Example 128, 8-(6-cyanopyridin-3-yl)-5-(((5-fluoro-2,3-dihydrobenzofuran-4-yl)methyl)amino)imidazo[1,2-c]pyrimidine-2-carbonitrile] |
| < 6.30 | ≥ 6.60 | Cc1cc(-c2cnc(NCc3c(F)ccc4c3CCO4)n3cc(C(=O)N(C)C)nc23)n(C)n1 [Example 21, 8-(1,3-dimethyl-1H-pyrazol-5-yl)-5-(((5-fluoro-2,3-dihydrobenzofuran-4-yl)methyl)amino)-N,N-dimethylimidazo[1,2-c]pyrimidine-2-carboxamide] |
| > 7.00 | ≥ 6.60 | Cn1nccc1-c1cnc(NCc2c(F)ccc3c2CCO3)n2cc(C#N)nc12 [Example 114, 5-(((5-fluoro-2,3-dihydrobenzofuran-4-yl)methyl)amino)-8-(1-methyl-1H-pyrazol-5-yl)imidazo[1,2-c]pyrimidine-2-carbonitrile] |
| > 7.00 | < 6.30 | CC(C)Oc1ccc(-c2cnc(NCc3c(F)ccc4c3CCO4)n3cc(C#N)nc23)cn1 [Example 133, 5-(((5-fluoro-2,3-dihydrobenzofuran-4-yl)methyl)amino)-8-(6-isopropoxypyridin-3-yl)imidazo[1,2-c]pyrimidine-2-carbonitrile] |
| > 7.00 | < 6.30 | Cc1nn(C(C)C)cc1-c1cnc(NCc2c(F)ccc3c2CCO3)n2cc(C(=O)O)nc12 [Example 5, 5-(((5-fluoro-2,3-dihydrobenzofuran-4-yl)methyl)amino)-8-(1-isopropyl-3-methyl-1H-pyrazol-4-yl)imidazo[1,2-c]pyrimidine-2-carboxylic acid] |
| > 7.00 | ≥ 6.60 | CN(C)C(=O)c1ccc(-c2cnc(NCc3c(F)ccc4c3CCO4)n3cc(C#N)nc23)c(F)c1F [Example 42, 4-(2-cyano-5-(((5-fluoro-2,3-dihydrobenzofuran-4-yl)methyl)amino)imidazo[1,2-c]pyrimidin-8-yl)-2,3-difluoro-N,N-dimethylbenzamide] |
| > 7.00 | 6.30 to 6.60 | N#Cc1cn2c(NCc3c(F)ccc4c3CCO4)ncc(-c3ccc(N)nc3)c2n1 [Example 127, 8-(6-aminopyridin-3-yl)-5-(((5-fluoro-2,3-dihydrobenzofuran-4-yl)methyl)amino)imidazo[1,2-c]pyrimidine-2-carbonitrile] |
| > 7.00 | ≥ 6.60 | CN1CCN(C(=O)c2ccc(-c3cnc(NCc4c(F)ccc5c4CCO5)n4cc(C#N)nc34)cc2)CC1 [Example 115, 5-(((5-fluoro-2,3-dihydrobenzofuran-4-yl)methyl)amino)-8-(4-(4-methylpiperazine-1-carbonyl)phenyl)imidazo[1,2-c]pyrimidine-2-carbonitrile] |
| > 7.00 | ≥ 6.60 | CNC(=O)c1cn2c(NCc3c(F)ccc4c3CCO4)ncc(-c3cc(C)nn3C)c2n1 [Example 20, 8-(1,3-dimethyl-1H-pyrazol-5-yl)-5-(((5-fluoro-2,3-dihydrobenzofuran-4-yl)methyl)amino)-N-methylimidazo[1,2-c]pyrimidine-2-carboxamide] |
| > 7.00 | < 6.30 | Cc1nc(C2CC2)ncc1-c1cnc(NCc2c(F)ccc3c2CCO3)n2cc(C(=O)O)nc12 [Example 7, 8-(2-cyclopropyl-4-methylpyrimidin-5-yl)-5-(((5-fluoro-2,3-dihydrobenzofuran-4-yl)methyl)amino)imidazo[1,2-c]pyrimidine-2-carboxylic acid] |
| > 7.00 | ≥ 6.60 | Cc1ccncc1-c1cnc(NCc2c(F)ccc3c2CCO3)n2cc(C#N)nc12 [Example 98, 5-(((5-fluoro-2,3-dihydrobenzofuran-4-yl)methyl)amino)-8-(4-methylpyridin-3-yl)imidazo[1,2-c]pyrimidine-2-carbonitrile] |
| 6.30 to 7.00 | 6.30 to 6.60 | Cc1nc(C2CC2)ncc1-c1cnc(NCc2c(F)ccc3c2CCO3)n2cc(C#N)nc12 [Example 25, 8-(2-cyclopropyl-4-methylpyrimidin-5-yl)-5-(((5-fluoro-2,3-dihydrobenzofuran-4-yl)methyl)amino)imidazo[1,2-c]pyrimidine-2-carbonitrile] |
| 6.30 to 7.00 | ≥ 6.60 | N#Cc1cn2c(NCc3c(F)ccc4c3CCO4)ncc(-c3ccc(CO)nc3)c2n1 [Example 147, 5-(((5-fluoro-2,3-dihydrobenzofuran-4-yl)methyl)amino)-8-(6-(hydroxymethyl)pyridin-3-yl)imidazo[1,2-c]pyrimidine-2-carbonitrile] |
| > 7.00 | ≥ 6.60 | N#Cc1cn2c(NCc3c(F)ccc4c3CCO4)ncc(-c3cnn(CC(F)(F)F)c3)c2n1 [Example 108, 5-(((5-fluoro-2,3-dihydrobenzofuran-4-yl)methyl)amino)-8-(1-(2,2,2-trifluoroethyl)-1H-pyrazol-4-yl)imidazo[1,2-c]pyrimidine-2-carbonitrile] |
| > 7.00 | ≥ 6.60 | CN(C)C(=O)c1c(F)cc(-c2cnc(NCc3c(F)ccc4c3CCO4)n3cc(C#N)nc23)cc1F [Example 45, 4-(2-cyano-5-(((5-fluoro-2,3-dihydrobenzofuran-4-yl)methyl)amino)imidazo[1,2-c]pyrimidin-8-yl)-2,6-difluoro-N,N-dimethylbenzamide] |
| > 7.00 | 6.30 to 6.60 | N#Cc1cn2c(NCc3c(F)ccc4c3CCO4)ncc(-c3cccnc3C(F)F)c2n1 [Example 64, 8-(2-(difluoromethyl)pyridin-3-yl)-5-(((5-fluoro-2,3-dihydrobenzofuran-4-yl)methyl)amino)imidazo[1,2-c]pyrimidine-2-carbonitrile] |
| 6.30 to 7.00 | < 6.30 | COc1ncc(-c2cnc(NCc3c(F)ccc4c3CCO4)n3cc(C#N)nc23)cc1C#N [Example 130, 8-(5-cyano-6-methoxypyridin-3-yl)-5-(((5-fluoro-2,3-dihydrobenzofuran-4-yl)methyl)amino)imidazo[1,2-c]pyrimidine-2-carbonitrile] |
| > 7.00 | 6.30 to 6.60 | CC(C)(O)Cn1cc(-c2cnc(NCc3c(F)ccc4c3CCO4)n3cc(C#N)nc23)cn1 [Example 121, 5-(((5-fluoro-2,3-dihydrobenzofuran-4-yl)methyl)amino)-8-(1-(2-hydroxy-2-methylpropyl)-1H-pyrazol-4-yl)imidazo[1,2-c]pyrimidine-2-carbonitrile] |
| > 7.00 | 6.30 to 6.60 | Cc1cc(-c2cnc(NCc3cccc4c3CCO4)n3cc(C(N)=O)nc23)n(C)n1 [Example 19, 5-(((2,3-dihydrobenzofuran-4-yl)methyl)amino)-8-(1,3-dimethyl-1H-pyrazol-5-yl)imidazo[1,2-c]pyrimidine-2-carboxamide] |
| < 6.30 | 6.30 to 6.60 | N#Cc1cn2c(NCc3c(F)ccc4c3CCO4)ncc(-c3cncc(C(F)(F)F)c3)c2n1 [Example 132, 5-(((5-fluoro-2,3-dihydrobenzofuran-4-yl)methyl)amino)-8-(5-(trifluoromethyl)pyridin-3-yl)imidazo[1,2-c]pyrimidine-2-carbonitrile] |

— patent EP4043466B1, “PRC2 INHIBITORS” (Mirati Therapeutics, Inc., priority 2018, dated 2019)
